Source: article PMC7450057, “Enhancing intracellular accumulation and target engagement of PROTACs with reversible covalent chemistry” (Nature Communications, 2020)
Values joined by “and” are separate entries in the source; they are usually repeats but may differ in a detail not shown here. Equal values may be shown once. “Also recorded” adds a separate entry of the source.

Experiments:
Maver-1 = assay: IC50 in MCL cell lines (Supplementary Table 2), Maver-1; conditions: for Cell Viability (%): Maver-1 cells, replicate wells
full-length BTK protein = target: T1, full-length BTK protein (Homo sapiens, UniProt Q06187); assay: BTK binding assay (Kd, Eurofins DiscoverX); conditions: for Kd: full-length BTK, absence of DTT in the buffer, duplicates
T1 construct: Kd was measured using the full-length BTK protein by Eurofins DiscoverX; T7 phage fusion or DNA tag for qPCR (generic vendor protocol); purchased Eurofins DiscoverX
Protocol: The dissociation equilibrium constant Kd was measured using the full-length BTK protein by Eurofins DiscoverX according to the following protocol: kinase-tagged T7 phage strains were prepared in an E. coli host derived from the BL21 strain. E. coli were grown to log-phase and infected with T7 phage and incubated with shaking at 32 °C until lysis. The lysates were centrifuged and filtered to remove cell debris. The remaining kinases were produced in HEK-293 cells and subsequently tagged with DNA for qPCR detection. […] The liganded beads were blocked with excess biotin and washed with blocking buffer (SeaBlock (Pierce), 1% BSA, 0.05% Tween 20, 1 mM DTT) to remove unbound ligand and to reduce non-specific binding. […] Test compounds were prepared as 111X stocks in 100% DMSO. […] The compounds were then diluted directly into the assays such that the final concentration of DMSO was 0.9%. All reactions performed in polypropylene 384-well plate. Each was a final volume of 0.02 mL. […] The kinase concentration in the eluates was measured by qPCR. For kinase-binding constant determination, an 11-point 3-fold serial dilution of each test compound was prepared in 100% DMSO at 100x final test concentration and subsequently diluted to 1x in the assay (final DMSO concentration = 1%). […] Binding constants (Kd values) were calculated with a standard dose-response curve using the Hill equation: Response=Background+Signal−Background/1+KdHillSlope/Dose^HillSlope
The Hill Slope was set to −1. Curves were fitted using a non-linear least square fit with the Levenberg-Marquardt algorithm.

BTK [1] = target: T2, BTK (Homo sapiens, UniProt Q06187); assay: BTK degradation in MOLM-14 cells (western blot); format: cell-based; set-up: endogenous in cells; host or cells: MOLM-14; conditions: for BTK%: Figure 2c, DMSO = 100
BTK [2] = target: T2, BTK; assay: In vitro BTK kinase assay (PhosphoSens); format: biochemical; set-up: purchased SignalChem B10-10H-10; conditions: for IC50: AssayQuant BTK assay kit, 2.5 nM BTK, 1 mM ATP, duplicates, read-out: BTK inhibition IC50; for activity at 2.56 pM: drug concentration 2.56 pM; for activity at 12.8 pM: drug concentration 12.8 pM; for activity at 64 pM: drug concentration 64 pM; for activity at 0.00032 µM: drug concentration 320 pM; for activity at 0.0016 µM: drug concentration 1600 pM; for activity at 0.008 µM: drug concentration 8000 pM; for activity at 0.2 µM: drug concentration 200000 pM; for activity at 1 µM: drug concentration 1000000 pM
[3] = Permeability by lipid-PAMPA method (Pharmaron); format: in vitro ADME; conditions: PAMPA; for recovery at 16 h, 10 μM: Recovery%; for Papp at 16 h, 10 μM: pH 7.4
Protocol: The permeability of compounds was measured using Lipid-PAMPA method by Pharmaron. Preparation of stock solutions: testosterone and methotrexate were used as control compounds in this assay. The stock solutions of positive controls were prepared in DMSO or acetonitrile at the concentration of 10 mM. Prepare a stock solution of compounds in DMSO at the concentration of 10 mM, and further dilute with PBS (pH 7.4). […]
Assay procedures: prepare a 1.8% solution (w/v) of lecithin in dodecane, and sonicate the mixture to ensure a complete dissolution. Carefully pipette 5 μL of the lecithin/dodecane mixture into each acceptor plate well (top compartment), avoiding pipette tip contact with the membrane. Immediately after the application of the artificial membrane (within 10 min), add 300 μL of PBS (pH 7.4) solution to each well of the acceptor plate. Add 300 μL of drug-containing solutions to each well of the donor plate (bottom compartment) in triplicate. Slowly and carefully place the acceptor plate into the donor plate, making sure the underside of the membrane is in contact with the drug-containing solutions in all wells. Replace the plate lid and incubate at 25 °C, 60 rpm for 16 h. After incubation, aliquots of 50 μL from each well of acceptor and donor plate are transferred into a 96-well plate. Add 450 μL of methanol (containing IS: 100 nM Alprazolam, 200 nM Caffeine, 100 nM Tolbutamide) into each well. Cover with plate lid. Vortex at 750 rpm for 100 s. Samples were centrifuged at 3220 × g for 20 min. Determine the compound concentrations by LC/MS/MS. The effective permeability (Pe), in units of centimeter per second, can be calculated using the following equation: LogPe=LogC×−Ln1−drugacceptor/drugequilibrium

[4] = BTK_+DTT, compound concentration 0.00491 nM
[5] = BTK_+DTT, compound concentration 0.0147 nM
[6] = BTK_+DTT, compound concentration 0.0442 nM
[7] = BTK_+DTT, compound concentration 0.133 nM
[8] = BTK_+DTT, compound concentration 0.398 nM
[9] = BTK_+DTT, compound concentration 1.19 nM
[10] = BTK_+DTT, compound concentration 3.58 nM
[11] = BTK_+DTT, compound concentration 10.7 nM
[12] = BTK_+DTT, compound concentration 32.2 nM
[13] = BTK_+DTT, compound concentration 96.7 nM
[14] = BTK_+DTT, compound concentration 290 nM
[15] = BTK_-DTT, compound concentration 0.0152 nM
[16] = BTK_-DTT, compound concentration 0.0457 nM
[17] = BTK_-DTT, compound concentration 0.137 nM
[18] = BTK_-DTT, compound concentration 0.412 nM
[19] = BTK_-DTT, compound concentration 1.23 nM
[20] = BTK_-DTT, compound concentration 3.7 nM
[21] = BTK_-DTT, compound concentration 11.1 nM
[22] = BTK_-DTT, compound concentration 33.3 nM
[23] = BTK_-DTT, compound concentration 100 nM
[24] = BTK_-DTT, compound concentration 300 nM
[25] = Supplementary Figure 5, replicates, read-out: Inhibition(%)

T1 sequence (Q06187 whole entry, the tested form may be a part): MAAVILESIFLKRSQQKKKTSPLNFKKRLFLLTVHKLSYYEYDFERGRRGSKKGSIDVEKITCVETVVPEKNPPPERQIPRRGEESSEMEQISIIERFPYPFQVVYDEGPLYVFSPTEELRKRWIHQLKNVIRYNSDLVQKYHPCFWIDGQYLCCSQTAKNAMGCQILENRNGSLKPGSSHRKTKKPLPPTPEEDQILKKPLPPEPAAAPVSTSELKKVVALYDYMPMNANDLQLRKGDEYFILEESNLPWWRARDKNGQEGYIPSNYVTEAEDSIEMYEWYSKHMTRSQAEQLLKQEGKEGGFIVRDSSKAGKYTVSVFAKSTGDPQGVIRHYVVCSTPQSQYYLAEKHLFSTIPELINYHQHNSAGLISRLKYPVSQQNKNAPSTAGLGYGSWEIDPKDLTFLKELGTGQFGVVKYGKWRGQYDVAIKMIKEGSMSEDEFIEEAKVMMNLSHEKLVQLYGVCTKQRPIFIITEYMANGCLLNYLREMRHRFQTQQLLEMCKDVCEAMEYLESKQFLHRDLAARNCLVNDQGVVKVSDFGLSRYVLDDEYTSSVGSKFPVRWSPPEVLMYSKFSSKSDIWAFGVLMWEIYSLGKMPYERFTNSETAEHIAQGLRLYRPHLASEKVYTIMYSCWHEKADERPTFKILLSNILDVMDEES
T2 sequence (Q06187 whole entry): as the sequence (Q06187 whole entry, the tested form may be a part) above

CN(CCCNC(=O)CNc1cccc2c1C(=O)N(C1CCC(=O)NC1=O)C2=O)C(C)(C)C=C(C#N)C(=O)N1CCC[C@@H](n2nc(-c3ccc(Oc4ccccc4)cc3)c3c(N)ncnc32)C1 (stereo partly drawn) [RC-1]
IC50 (Maver-1; Maver-1, triplicates): 3.3 µM
Cell Viability (%) (Maver-1; 1.25E-06 M): 72.3477% and 75.344% and 75.6032%
Cell Viability (%) (Maver-1; 1.56E-07 M): 94.303% and 94.8872% and 90.9031%
Cell Viability (%) (Maver-1; 2.50E-06 M): 56.7361% and 58.5739% and 54.2977%
Cell Viability (%) (Maver-1; 3.13E-07 M): 94.0011% and 92.8623% and 88.8158%
Cell Viability (%) (Maver-1; 5.00E-06 M): 44.682% and 45.5221% and 44.0945%
Cell Viability (%) (Maver-1; 6.25E-07 M): 91.7892% and 94.3523% and 87.1487%
Cell Viability (%) (Maver-1; 7.81E-08 M): 97.5389% and 95.4976% and 96.2656%
Signal (full-length BTK protein; [4]): 2.20E-05 and 2.17E-05
Signal (full-length BTK protein; [5]): 1.92E-05 and 1.81E-05
Signal (full-length BTK protein; [6]): 2.14E-05 and 1.73E-05
Signal (full-length BTK protein; [7]): 2.05E-05 and 2.18E-05
Signal (full-length BTK protein; [8]): 2.41E-05 and 2.16E-05
Signal (full-length BTK protein; [9]): 1.65E-05 and 1.58E-05
Signal (full-length BTK protein; [10]): 1.59E-05 and 1.74E-05
Signal (full-length BTK protein; [11]): 1.27E-05 and 1.43E-05
Signal (full-length BTK protein; [12]): 8.15E-06 and 9.04E-06
Signal (full-length BTK protein; [13]): 2.36E-06 and 3.19E-06
Signal (full-length BTK protein; [14]): 6.97E-07 and 7.79E-07
Signal (full-length BTK protein; [15]): 1.51E-05 and 1.47E-05
Signal (full-length BTK protein; [16]): 1.49E-05 and 1.51E-05
Signal (full-length BTK protein; [17]): 1.65E-05 and 2.03E-05
Signal (full-length BTK protein; [18]): 1.54E-05 and 1.43E-05
Signal (full-length BTK protein; [19]): 1.12E-05 and 1.17E-05
Signal (full-length BTK protein; [20]): 1.02E-05 and 1.17E-05
Signal (full-length BTK protein; [21]): 6.96E-06 and 6.70E-06
Signal (full-length BTK protein; [22]): 2.36E-06 and 3.11E-06
Signal (full-length BTK protein; [23]): 5.28E-07 and 7.20E-07
Signal (full-length BTK protein; [24]): 2.64E-07 and 1.61E-07
Kd (full-length BTK protein): 6.4 nM
Quantification anti-BTK / anti-β-actin (BTK level vs DMSO) (BTK [1]; Figure 2b, 8 nM, duplicates): 63.6968 and 56.9893
Quantification anti-BTK / anti-β-actin (BTK level vs DMSO) (BTK [1]; Figure 2b, 40 nM, duplicates): 41.0784 and 35.9122
Quantification anti-BTK / anti-β-actin (BTK level vs DMSO) (BTK [1]; Figure 2b, 200 nM, duplicates): 29.8182 and 40.565
BTK% (BTK [1]; 1.6 nM, duplicates): 93.8522% and 87.3729%
BTK% (BTK [1]; 8 nM, duplicates): 68.8086% and 49.2324%
BTK% (BTK [1]; 200 nM, duplicates): 29.085% and 28.987%
BTK% (BTK [1]; 1000 nM, duplicates): 33.1562% and 45.5509%
Quantification anti-BTK / anti-β-actin (BTK level vs DMSO) (BTK [1]; Figure 2d, DMSO = 100 (mean)): 23.0985
Degradation at 200 nM (percentage of BTK degradation) (BTK [1]; MOLM-14 cells, 200 nM, 24 h incubation): 81%
DC50 (BTK [1]; MOLM-14 cells, 24 h, western blot, read-out: DC50 (compound concentration inducing 50% of protein degradation)): 6.6 nM
IC50 (BTK [2]): 1.8 nM
activity at 2.56 pM (BTK [2]; [25]): 87.3%
activity at 12.8 pM (BTK [2]; [25]): 93.2%
activity at 64 pM (BTK [2]; [25]): 89.4%
activity at 0.00032 µM (BTK [2]; [25]): 87.3%
activity at 0.0016 µM (BTK [2]; [25]): 55%
activity at 0.008 µM (BTK [2]; [25]): 8.41%
activity at 0.04 µM (BTK [2]; Supplementary Figure 5, drug concentration 40000 pM, replicates, read-out: Inhibition(%)): 3.46%
activity at 0.2 µM (BTK [2]; [25]): 2.91%
activity at 1 µM (BTK [2]; [25]): 2.99%
recovery at 16 h, 10 μM [3]: 25.1%
Papp at 16 h, 10 μM [3]: < 0.00692 ×10⁻⁶ cm/s

CN(CC=CC(=O)N1CCCC(n2nc(-c3ccc(Oc4ccccc4)cc3)c3c(N)ncnc32)C1)CCCNC(=O)CNc1cccc2c1C(=O)N(C1CCC(=O)NC1=O)C2=O (stereo not drawn) [IRC-1]
Signal (full-length BTK protein; [4]): 2.11E-05 and 2.14E-05
Signal (full-length BTK protein; [5]): 1.62E-05 and 1.97E-05
Signal (full-length BTK protein; [6]): 2.15E-05 and 2.03E-05
Signal (full-length BTK protein; [7]): 2.11E-05 and 2.33E-05
Signal (full-length BTK protein; [8]): 1.86E-05 and 1.95E-05
Signal (full-length BTK protein; [9]): 1.43E-05 and 1.52E-05
Signal (full-length BTK protein; [10]): 1.06E-05 and 1.08E-05
Signal (full-length BTK protein; [11]): 5.42E-06 and 5.34E-06
Signal (full-length BTK protein; [12]): 1.75E-06 and 1.73E-06
Signal (full-length BTK protein; [13]): 3.47E-07 and 3.72E-07
Signal (full-length BTK protein; [14]): 8.87E-08 and 9.98E-08
Signal (full-length BTK protein; [15]): 1.52E-05 and 1.19E-05
Signal (full-length BTK protein; [16]): 1.62E-05 and 1.68E-05
Signal (full-length BTK protein; [17]): 1.78E-05 and 1.76E-05
Signal (full-length BTK protein; [18]): 1.29E-05 and 1.60E-05
Signal (full-length BTK protein; [19]): 1.07E-05 and 1.11E-05
Signal (full-length BTK protein; [20]): 7.15E-06 and 6.34E-06
Signal (full-length BTK protein; [21]): 3.52E-06 and 2.70E-06
Signal (full-length BTK protein; [22]): 1.15E-06
Signal (full-length BTK protein; [23]): 3.02E-07 and 3.08E-07
Signal (full-length BTK protein; [24]): 1.03E-07 and 9.31E-08
Kd (full-length BTK protein): 3 nM
Quantification anti-BTK / anti-β-actin (BTK level vs DMSO) (BTK [1]; Figure 2b, 8 nM, duplicates): 93.1337 and 89.8918
Quantification anti-BTK / anti-β-actin (BTK level vs DMSO) (BTK [1]; Figure 2b, 40 nM, duplicates): 73.5656 and 73.5943
Quantification anti-BTK / anti-β-actin (BTK level vs DMSO) (BTK [1]; Figure 2b, 200 nM, duplicates): 64.1549 and 63.4726
BTK degradation (in words) (BTK [1]; MOLM-14 cells, indicated doses, 24 h): induced inefficient BTK degradation; also recorded: very little BTK degradation was observed
IC50 (BTK [2]): 0.8 nM
activity at 2.56 pM (BTK [2]; [25]): 86.2%
activity at 12.8 pM (BTK [2]; [25]): 77.7%
activity at 64 pM (BTK [2]; [25]): 78.1%
activity at 0.00032 µM (BTK [2]; [25]): 65.7%
activity at 0.0016 µM (BTK [2]; [25]): 28%
activity at 0.008 µM (BTK [2]; [25]): 4.02%
activity at 0.2 µM (BTK [2]; [25]): 0.667%
activity at 1 µM (BTK [2]; [25]): 2.16%
diminished BTK inhibitory activity compared with corresponding warhead control (BTK [2]; ratio of IC50 values): < 3 fold
recovery at 16 h, 10 μM [3]: 17.4%
Papp at 16 h, 10 μM [3]: < 0.0245 ×10⁻⁶ cm/s
